“And” between values parts separate entries of the source, which are not always exact repeats. Identical values can stand only once.
Key:
[1] = system: children with progressive familial intrahepatic cholestasis (PFIC); test: INDIGO phase 2 open-label efficacy and safety study of maralixibat in children with PFIC; assay type: in vivo, human; conditions: week 48
[2] = system: children with Alagille syndrome (ALGS); test: ICONIC phase 2b randomized placebo-controlled drug-withdrawal study with long-term extension of maralixibat in Alagille syndrome; conditions: for C4, mean: baseline 7.4; for Serum cholesterol, mean: baseline 414.3; for ItchRO(Obs) Weekly Morning Average Score, Average Change from Baseline: week 48
Method: Children aged 1-18 years with a diagnosis of ALGS and evidence of cholestasis were eligible to enroll in the ICONIC clinical study, see Tables 12-14. During a long-term extension, participants with sBA levels above the upper limit of normal and/or an ITCHRO(OBS) score >1.5 were eligible for the 400 μg/kg BID dose (all participants received the 400 μg/kg BID dose). Inclusion criteria for the ICONIC study included having cholestasis, which was defined as at least one of 1) sBA concentration (total sBA) >3× the upper limit of normal, 2) serum conjugated bilirubin concentration >1 mg/dL, 3) fat-soluble vitamin deficiency not otherwise explained, 4) serum gamma-glutamyl transferase concentration >3× the upper limit of normal, and 3) intractable pruritus explainable only by liver disease. Inclusion criteria also included having significant pruritus, which was defined as an average daily score of >2 on the ITCHRO(OBS) scale for 2 consecutive weeks (0=no pruritus; 4=most severe pruritus). Exclusion criteria included having surgically disrupted enterohepatic circulation, a liver transplant, decompensated cirrhosis, or having any liver disease other than ALGS.
sBA responders were defined as those patients achieving ≥50% reduction from baseline in sBA at week 12 or 18. ITCHRO responders were defined as those patients achieving at least a 1-point reduction from Baseline in weekly morning ITCHRO(OBS) score at week 12 or 18.
In the open label extension, the effect of higher doses was explored by increasing dosage to a maximum of 400 μg/kg BID in eligible participants.
Efficacy assessments were based on changes from baseline in sBA concentration, weekly average ITCHRO(OBS) scores (0, none; 4, most severe), CSS score (0, none; 4 most severe), and Clinician Xanthoma Scale score (0, none; 4, disabling). […] During the long-term extension, efficacy assessments were conducted every 12 weeks.
sBA were measured using a fully validated liquid chromatography-electrospray ionization-mass electrospray (LC-ESI-MS) method using stable-isotope dilution analysis to measure serum concentrations of principal bile acids (cholic, chenodeoxycholic, ursodeoxycholic, deoxycholic acid, lithocholic, and their corresponding glycine and taurine conjugates). […] Calibration standards of individual bile acids were in the range of 50-25,000 ng/mL and Quality Control samples were prepared at concentrations of 100, 500, 1000, 2500, and 20000 ng/mL. The intra- and inter-assay imprecision of the method for individual bile acids measured was within the accepted GLP quality assurance guidelines of <15% coefficient of variance for these QC samples. The lower limit of quantification of the assay was set at 100 ng/mL and the imprecision at this concentration was <20%. The limit of detection of the assay was 5 ng/mL. Total sBA is represented by the sum of the individual bile acid species measured.

[3] = Withdrawal - Week 22, maralixibat group
[4] = individual subjects, one line per Subject ID of Table 18
[5] = individual subjects, one line per Subject ID of Table 19
[6] = sBA Normalization (<8.5 μmol/L)

## CCCCC1(CCCC)CS(=O)(=O)c2ccc(N(C)C)cc2[C@@H](c2ccc(OCc3ccc(C[N+]45CCN(CC4)CC5)cc3)cc2)[C@H]1O [maralixibat]
[1]
  ALT, change from baseline to week 48, mean: −12 UI/L
  C4, change from baseline to week 48, mean: +6.0 ng/mL
  ItchRO(Obs) score, change from baseline to week 48, mean: −1.0
  Total bilirubin, change from baseline to week 48, mean: +0.8 mg/dL
  sBA, change from baseline to week 48, mean: -32 µmol/L
[2]; 400 μg/kg BID relative to 400 μg/kg QD
  sBA, pruritus, and growth after the higher daily dose: further improvements
[2]; 400 μg/kg BID versus 400 μg/kg QD, FIGS. 35-36
  weight Z-scores: dose-dependent increase
[2]; ICONIC participants, FIGS. 33-34, SE 0.1
  Height Z-score, increase from baseline: 0.5
[2]; Open-label Week 18
  ItchRO (Obs) responders, Decrease from baseline ≥1: 67.7%
  ItchRO (Obs) responders, Decrease from baseline ≥1.25: 58.1%
  ItchRO (Obs) responders, Decrease from baseline ≥1.5: 51.6%
[2]; Open-label Week 48
  ItchRO (Obs) responders, Decrease from baseline ≥1: 72.4%
  ItchRO (Obs) responders, Decrease from baseline ≥1.25: 58.6%
  ItchRO (Obs) responders, Decrease from baseline ≥1.5: 51.7%
[2]; Week 48, n = 15
  C4, mean: 20.4 ng/mL
  Serum cholesterol, mean: 340.3 mg/dL
[2]; Week 191, n = 15
  C4, mean: 30.4 ng/mL
  Serum cholesterol, mean: 277.5 mg/dL
[2]; [3]
  ItchRO (Obs) responders, Decrease from baseline ≥1: 53.8%
  ItchRO (Obs) responders, Decrease from baseline ≥1.25: 46.2%
  ItchRO (Obs) responders, Decrease from baseline ≥1.5: 23.1%
[2]; after 98 weeks
  study days across participants with minimal or no pruritus (ITCHRO(OBS)≤1): over 89%
[2]; all participants by week 48 (p<0.01)
  Clinician xanthoma scale scores: improved significantly
[2]; at 191 weeks, long-term extension
  sBA levels, reduction from baseline: about 57%
[2]; at 191 weeks, SE 0.2
  ITCHRO(OBS) score, mean change from baseline: −2.5
[2]; at 191 weeks, SE 0.4
  CSS score, mean reduction: 2.4 points
[2]; at 193 weeks
  ITCHRO(OBS) final score: about 0.33
  ITCHRO(OBS) score, mean reduction: over 2 points
[2]; by week 48, all participants
  CSS scores, average decrease: over 1.5 points
[2]; by week 191, SE 0.3
  Clinician Xanthoma Score, reduction from baseline: 0.7 points
[2]; by week 193
  ITCHRO(OBS) scores, average decrease relative to baseline: over 1.5 points
[2]; core study and extension (p<0.01)
  PedsQL Multidimensional Fatigue Scale scores: Improvements
[2]; core study and extension, over three years
  tolerability: well tolerated
[2]; doses up, treatment duration up to 4 years
  tolerability: generally well tolerated
[2]; first 18 weeks, 400 μg/kg QD
  sBA concentration, decrease: 31%
[2]; first 18 weeks, 400 μg/kg QD, SE 0.2
  ITCHRO(OBS) scores, mean change from baseline: −1.7
[2]; [4]
  Change in ItchRO from Baseline to Week 48 (ITCHRO(OBS) weekly morning average score): −0.12 and 0.49 and −0.45 and 1.29 and −3.86 and 0.00 and −2.57 and −0.86 (2×) and −0.71 (2×) and −0.00 (2×) and −0.29 and −0.67 and −0.14 and −0.03 and −3.29 (2×) and −3.43 and −2.50 and −2.71 (2×) and −3.50 and −2.29 and −0.17 and −0.43 and −0.83
  Serum Bile Acid, Change from Baseline to Week 48: −56.4 μmol/L and −166.3 μmol/L and −281.4 μmol/L and 166.4 μmol/L and −121.1 μmol/L and 4.3 μmol/L (2×) and −251.0 μmol/L and 3.3 μmol/L and −27.3 μmol/L and −155.5 μmol/L and −240.2 μmol/L and 9.0 μmol/L and 143.1 μmol/L and −112.2 μmol/L and 16.4 μmol/L and −10.9 μmol/L and −16.9 μmol/L and 54.5 μmol/L and −620.4 μmol/L and −23.9 μmol/L and −377.3 μmol/L and −205.9 μmol/L and −270.4 μmol/L and 25.5 μmol/L and −203.6 μmol/L and −96.4 μmol/L and −33.9 μmol/L
  Serum Bile Acid, Week 48: 22.9 µmol/L and 131.8 µmol/L and 98.5 µmol/L and 578.1 µmol/L and 20.8 µmol/L and 333.0 µmol/L and 119.6 µmol/L and 117.7 µmol/L and 492.6 µmol/L and 427.9 µmol/L and 199.8 µmol/L and 29.2 µmol/L and 891.6 µmol/L and 163.4 µmol/L and 60.2 µmol/L and 12.0 µmol/L and 23.6 µmol/L and 126.1 µmol/L and 37.0 µmol/L and 7.0 µmol/L and 101.9 µmol/L and 293.3 µmol/L and 65.0 µmol/L and 110.9 µmol/L and 35.8 µmol/L and 208.0 µmol/L and 55.8 µmol/L and 15.6 µmol/L
[2]; [5]
  ItchRO(Obs) Weekly Morning Average Score, Change from Baseline to Week 48: −0.12 and 0.49 and −0.45 and 1.29 and −3.86 and 0.00 and −2.57 and −0.86 (2×) and −0.71 (2×) and −0.00 (2×) and −0.29 and −0.67 and −0.14 and −0.03 and −3.29 (2×) and −3.43 and −2.50 and −2.71 (2×) and −3.50 and −2.29 and −0.17 and −0.43 and −0.83
  ItchRO(Obs) Weekly Morning Average Score, Week 48: 2.71 and 3.20 and 1.83 and 3.71 and 0.14 and 1.86 and 0.71 and 1.14 (2×) and 0.29 (2×) and 2.00 (2×) and 1.71 (2×) and 1.00 and 1.40 and 0.00 (7×) and 1.43 and 1.57 and 3.50 and 2.17
[2]; randomized withdrawal (week 18-22), SE 48.0
  sBA levels, least squares mean difference maralixibat vs placebo: −114.0
[2]; randomized withdrawal, SE 0.3
  ITCHRO(OBS), LS mean difference maralixibat vs placebo: −1.5
[2]; [6]
  ItchRO(Obs) Weekly Morning Average Score, Week 48 Average Score: 0.00
  participants meeting sBA Response Definition, Week 48 (N = 28), %: (3.6%)
  ItchRO(Obs) Weekly Morning Average Score, Average Change from Baseline: −3.50
[2]; sBA ≥50% Reduction
  ItchRO(Obs) Weekly Morning Average Score, Week 48 Average Score: 1.07
  participants meeting sBA Response Definition, Week 48 (N = 28), %: (46.4%)
  ItchRO(Obs) Weekly Morning Average Score, Average Change from Baseline: −1.86
[2]; sBA ≥60% Reduction
  ItchRO(Obs) Weekly Morning Average Score, Week 48 Average Score: 0.82
  participants meeting sBA Response Definition, Week 48 (N = 28), %: (39.3%)
  ItchRO(Obs) Weekly Morning Average Score, Average Change from Baseline: −2.12
[2]; sBA ≥70% Reduction
  ItchRO(Obs) Weekly Morning Average Score, Week 48 Average Score: 0.62
  participants meeting sBA Response Definition, Week 48 (N = 28), %: (28.6%)
  ItchRO(Obs) Weekly Morning Average Score, Average Change from Baseline: −2.31
[2]; sBA ≥80% Reduction
  ItchRO(Obs) Weekly Morning Average Score, Week 48 Average Score: 0.11
  participants meeting sBA Response Definition, Week 48 (N = 28), %: (14.3%)
  ItchRO(Obs) Weekly Morning Average Score, Average Change from Baseline: −2.79
[2]; sBA ≥90% Reduction
  ItchRO(Obs) Weekly Morning Average Score, Week 48 Average Score: 0.00
  participants meeting sBA Response Definition, Week 48 (N = 28), %: (3.6%)
  ItchRO(Obs) Weekly Morning Average Score, Average Change from Baseline: −2.71
[2]; week 48, all participants
  CSS final average score: about 1.5

Source: patent US20220133738A1, “GENOTYPE AND DOSE-DEPENDENT RESPONSE TO AN ASBTI IN PATIENTS WITH BILE SALT EXPORT PUMP DEFICIENCY” (MIRUM PHARMACEUTICALS, INC., priority 2019, published 2022)
